Measurements taken from patent US20100160335A1, “PYRIDAZINONE DERIVATIVE AND PDE INHIBITOR CONTAINING THE SAME AS ACTIVE INGREDIENT” (KYORIN PHARMACEUTICAL CO., LTD., priority 2007, published 2010).
Where two headings read alike, the source gives them in different places.

Tests used:
[1] = test system: LPS acute inflammation model in rats; assay: LPS acute inflammation model in rats (total leukocytes in BALF); assay type: in vivo; conditions: BALF 3 hours after LPS; for Inhibition rate (total number of leukocytes in BALF): rat; for inhibition in vivo at 1 mg/kg: Rattus norvegicus, Leukocyte, po, 3 h, read-out: Inhibition rate (total number of leukocytes in BALF)
Method: 1 mg/kg of the compound was orally administered to rat one hour before inhalation of a lipopolysaccharide from E. coli serotype 055:B5 (LPS), and the rat was made to inhale 50 mL of the LPS solution nebulized using a nebulizer for 30 minutes. Then, 3 hours after the LPS inhalation, the rat was euthanized with 20% urethane (5 ml/rat, i.p.). 5 ml of physiological saline for bronchoalveolar lavage was injected into the bronchial tubes and alveoli through the airway, and the bronchial tubes and alveoli were washed three times using a 5 mL syringe. This operation was repeated twice, and the solution was collected as bronchoalveolar lavage fluid (BALF). The collected BALF was centrifuged at 1200 rpm and 4° C. for 10 minutes (Hirtachi; himac CR 5 DL). The pellet was re-suspended in 10 mL of a 0.1% bovine serum albumin-physiological saline, and an equivalent amount of Turk's solution was added thereto to stain leukocytes. The total number of leukocytes was counted under a microscope to calculate the inhibition rate. Further, the indications were as follows: inhibition rate≧90% (++) and 90%>inhibition rate≧50% (+). [ ] means the results of the drug administration after fasting overnight.

PDE4Bcat = target: T1, PDE4Bcat (Homo sapiens, UniProt Q07343); assay: Phosphodiesterase inhibitory activity, PDE4 ([3H]cAMP, recombinant enzyme); assay type: biochemical; conditions: 30° C., 20 minutes, read-out: IC50(μmol/L) PDE4
T1 construct: made in house; host or cells: Sf9 insect cells (baculovirus, Bac-to-Bac / Gateway)

[2] = test system: histamine-induced bronchoconstriction in guinea pigs; assay: Histamine-induced bronchoconstriction reaction in guinea pigs; assay type: in vivo; conditions: Cavia porcellus, iv, 0.5 min, guinea pig, measured 30 seconds after administration, read-out: Inhibition rate (histamine-induced bronchoconstriction); for inhibition in vivo at 0.3 mg/kg: compound 0.3 mg/kg, i.v.; for inhibition in vivo at 0.1 mg/kg: compound 0.1 mg/kg, i.v. (values in [ ])
Method: Guinea pigs were anesthetized with pentobarbital (30 mg/kg, i.p.). A cannula for intravenous administration was inserted into the left external jugular vein, a cannula for collecting blood and measuring blood pressure was inserted into the right internal carotid artery, and a tracheal cannula was inserted into the trachea. The guinea pigs were maintained on artificial respiration under the conditions of 60 times/min and 10 mL/kg/stroke. The airflow from the side branch of the tracheal cannula was measured by a bronchospasm transducer (Ugo-Basile) and recorded on a computer via Power Lab (ADInstruments Japan). The guinea pigs were immobilized with gallamine (10 mg/kg, i.v.), and histamine (12.5 μg/kg, i.v.) was administered at 10-minute intervals. After the histamine-induced bronchoconstriction became stable, the compound (0.3 mg/kg, i.v.) was administered. The histamine-induced bronchoconstriction reaction was measured 30 seconds after the compound administration to examine the bronchoconstriction inhibitory activity of the compound. The bronchoconstriction was recorded as the airflow value, and the results were represented by the ratio of the maximum value of the histamine- induced airflow 30 seconds after the administration to the maximum value of the airflow before the administration. Also, the test compounds dissolved in DMSO were used. Further, the indications were as follows: inhibition rate≧90% (+++), 90%>inhibition rate≧80% (++), and 80%>inhibition rate≧70% (+). [ ] means the results in the case of 0.1 mg/kg, i.v.

[3] = target: T2, PDE3A catalytic domain (PDE3Acat) (Homo sapiens, UniProt Q14432); assay: Phosphodiesterase inhibitory activity, PDE3 ([3H]cAMP, recombinant enzyme); assay type: biochemical; conditions: 30° C., 20 minutes, read-out: IC50(μmol/L) PDE3
T2 construct: made in house; host or cells: Sf9 insect cells (baculovirus, Bac-to-Bac / Gateway)

[4] = 1 mg/kg orally one hour before LPS inhalation
[5] = 1 mg/kg orally after fasting overnight (values in [ ]), one hour before LPS inhalation
[6] = 1 mg/kg orally after fasting overnight (values in [ ]), one hour before LPS inhalation, 1 mg/kg

T2 sequence (Q14432 674-1093 limits assumed): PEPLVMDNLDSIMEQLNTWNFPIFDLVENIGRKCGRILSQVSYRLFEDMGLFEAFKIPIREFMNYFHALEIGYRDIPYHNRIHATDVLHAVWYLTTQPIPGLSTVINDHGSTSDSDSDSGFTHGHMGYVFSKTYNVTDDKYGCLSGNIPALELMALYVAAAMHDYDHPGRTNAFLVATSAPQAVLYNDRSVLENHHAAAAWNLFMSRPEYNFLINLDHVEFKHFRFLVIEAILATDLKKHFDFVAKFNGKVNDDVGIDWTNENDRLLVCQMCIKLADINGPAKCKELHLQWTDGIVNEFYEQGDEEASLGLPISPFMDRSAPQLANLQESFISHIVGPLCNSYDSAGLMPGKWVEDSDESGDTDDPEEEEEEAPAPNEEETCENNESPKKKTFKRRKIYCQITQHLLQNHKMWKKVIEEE
T1 sequence (Q07343 330-659 limits assumed): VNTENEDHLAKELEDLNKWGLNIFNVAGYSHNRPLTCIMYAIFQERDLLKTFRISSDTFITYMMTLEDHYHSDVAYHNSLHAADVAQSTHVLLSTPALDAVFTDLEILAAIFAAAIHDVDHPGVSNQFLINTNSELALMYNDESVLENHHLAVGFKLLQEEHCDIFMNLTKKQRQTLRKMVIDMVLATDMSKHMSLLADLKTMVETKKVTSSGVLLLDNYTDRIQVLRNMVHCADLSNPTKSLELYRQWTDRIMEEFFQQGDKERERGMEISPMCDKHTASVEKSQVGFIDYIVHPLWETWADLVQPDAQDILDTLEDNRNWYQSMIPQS

Compound	Inhibition rate (total number of leukocytes in BALF) [1, 4]	IC50 (PDE4Bcat) [µmol/L]	inhibition in vivo at 0.3 mg/kg [2] [%]	IC50 [3] [µmol/L]	inhibition in vivo at 1 mg/kg [1, 5] [%]	Inhibition rate (total number of leukocytes in BALF) [1, 6]	inhibition in vivo at 1 mg/kg [1, 4] [%]	inhibition in vivo at 0.1 mg/kg [2] [%]
CCc1ccc2c(C3=NN(CCCCOc4ccc(C5=NNC(=O)CC5C)cc4)C(=O)CC3C)ccc(OC)c2n1 (single isomer, unassigned) [Example 340, 6-(2-Ethyl-8-methoxyquinolin-5-yl)-5-methyl-2-[4-[4-(4-methyl-6-oxo-1,4,5,6-tetrahydropyridazin-3-yl)phenoxy]butyl]-4,5-dihydro-2H-pyridazin-3-one]	+ (90%>inhibition rate≧50% (+))	< 0.1	≥ 90	< 0.1	–	–	–	–
COc1ccc(-c2ccc(=O)n(CCCCOc3ccc(C4=NNC(=O)CC4)c(F)c3F)n2)c2ccc(C)nc12 [Example 271, 2-[4-[2,3-Difluoro-4-(6-oxo-1,4,5,6-tetrahydropyridazin-3-yl)phenoxy]butyl]-6-(8-methoxy-2-methylquinolin-5-yl)-2H-pyridazin-3-one]	–	< 0.1	≥ 90	< 0.1	50 to 90	–	–	–
CCc1ccc2c(-c3ccc(=O)n(CCCCOc4ccc(C5=NNC(=O)CC5C)c(F)c4F)n3)ccc(OC)c2n1 (single isomer, unassigned; (-)) [Example 323, (−)-6-(2-ethyl-8-methoxyquinolin-5-yl)-2-[4-[2,3-difluoro-4-(4-methyl-6-oxo-1,4,5,6-tetrahydropyridazin-3-yl)phenoxy]butyl]-2H-pyridazin-3-one]	–	< 0.1	70 to 80	< 0.1	–	[++] (inhibition rate≧90% (++))	–	–
CCc1ccc2c(-c3ccc(=O)n(CCCCOc4ccc(C5=NNC(=O)CC5C)c(F)c4F)n3)ccc(OC)c2n1 (stereo not drawn) [Example 289, 6-(2-Ethyl-8-methoxyquinolin-5-yl)-2-[4-[2,3-difluoro-4-(4-methyl-6-oxo-1,4,5,6-tetrahydropyridazin-3-yl)phenoxy]butyl]-2H-pyridazin-3-one]	–	< 0.1	≥ 90	< 0.1	–	–	50 to 90	–
COc1ccc(-c2ccc(=O)n(CCCCOc3ccc(C4=NNC(=O)CC4)c(F)c3F)n2)c2cccnc12 [Example 320, 2-[4-[2,3-Difluoro-4-(6-oxo-1,4,5,6-tetrahydropyridazin-3-yl)phenoxy]butyl]-6-(8-methoxyquinolin-5-yl)-2H-pyridazin-3-one]	–	< 0.1	≥ 90	< 0.1	50 to 90	–	–	–
CCc1ccc2c(-c3ccc(=O)n(CCCCOc4ccc(C5=NNC(=O)CC5C)c(F)c4F)n3)ccc(OC)c2n1 (single isomer, unassigned; (+)) [Example 322, (+)-6-(2-ethyl-8-methoxyquinolin-5-yl)-2-[4-[2,3-difluoro-4-(4-methyl-6-oxo-1,4,5,6-tetrahydropyridazin-3-yl)phenoxy]butyl]-2H-pyridazin-3-one]	–	< 0.1	–	< 0.1	–	[+] (90%>inhibition rate≧50% (+))	–	–
CCc1ccc2c(C3=NN(CCCCOc4ccc(C5=NNC(=O)CC5C)cc4)C(=O)CC3C)ccc(OC)c2n1 (single isomer, unassigned) [Example 339, 6-(2-Ethyl-8-methoxyquinolin-5-yl)-5-methyl-2-[4-[4-(4-methyl-6-oxo-1,4,5,6-tetrahydropyridazin-3-yl)phenoxy]butyl]-4,5-dihydro-2H-pyridazin-3-one]	–	< 0.1	–	1 to 10	–	–	50 to 90	–
CCc1ccc2c(C3=NN(CCCCOc4ccc(C5=NNC(=O)CC5)c(F)c4F)C(=O)CC3C)ccc(OC)c2n1 (stereo not drawn) [Example 299, 6-(2-Ethyl-8-methoxyquinolin-5-yl)-5-methyl-2-[4-[2,3-difluoro-4-(6-oxo-1,4,5,6-tetrahydropyridazin-3-yl)phenoxy]butyl]-4,5-dihydro-2H-pyridazin-3-one]	–	< 0.1	–	< 0.1	50 to 90	–	–	≥ 90
COc1ccc(-c2ccc(=O)n(CCCCOc3ccc(C4=NNC(=O)CC4C)c(F)c3F)n2)c2nc(C(F)(F)F)nn12 (stereo not drawn) [Example 304, 2-[4-[2,3-Difluoro-4-(4-methyl-6-oxo-1,4,5,6-tetrahydropyridazin-3-yl)phenoxy]butyl]-6-(5-methoxy-2-trifluoromethyl-[1,2,4]triazolo [1,5-a]pyridin-8-yl)-2H-pyridazin-3-one]	–	1 to 10	≥ 90	< 0.1	–	–	–	–
CCc1ccc2c(C3=NN(CCCCOc4ccc(C5=NNC(=O)CC5C)cc4OC)C(=O)CC3C)ccc(OC)c2n1 (stereo not drawn) [Example 293, 6-(2-Ethyl-8-methoxyquinolin-5-yl)-5-methyl-2-[4-[2-methoxy-4-(4-methyl-6-oxo-1,4,5,6-tetrahydropyridazin-3-yl)phenoxy]butyl]-4,5-dihydro-2H-pyridazin-3-one]	–	0.1 to 1	–	0.1 to 1	–	–	–	70 to 80
CCc1ccc2c(C3=NN(CCCCOc4ccc(C5=NNC(=O)CC5)cc4F)C(=O)CC3C)ccc(OC)c2n1 (stereo not drawn) [Example 298, 6-(2-Ethyl-8-methoxyquinolin-5-yl)-5-methyl-2-[4-[2-fluoro-4-(6-oxo-1,4,5,6-tetrahydropyridazin-3-yl)phenoxy]butyl]-4,5-dihydro-2H-pyridazin-3-one]	–	< 0.1	–	< 0.1	–	–	–	≥ 90
COc1ccc(-c2ccc(=O)n(CCCCOc3ccc(C4=NNC(=O)CC4C)c(F)c3F)n2)c2nc(C(F)(F)F)[nH]c12 (stereo not drawn) [Example 279, 2-[4-[2,3-Difluoro-4-(4-methyl-6-oxo-1,4,5,6-tetrahydropyridazin-3-yl)phenoxy]butyl]-6-(4-methoxy-2-trifluoromethyl-1H-benzimidazol-7-yl)-2H-pyridazin-3-one]	–	0.1 to 1	≥ 90	< 0.1	–	–	–	–
CCc1ccc2c(-c3ccc(=O)n(CCCCOc4ccc(C5=NNC(=O)CC5)c(F)c4F)n3)ccc(OC)c2n1 [Example 283, 6-(2-Ethyl-8-methoxyquinolin-5-yl)-2-[4-[2,3-difluoro-4-(6-oxo-1,4,5,6-tetrahydropyridazin-3-yl)phenoxy]butyl]-2H-pyridazin-3-one]	–	0.1 to 1	–	< 0.1	≥ 90	–	–	–
CCc1ccc2c(-c3ccc(=O)n(CCCCOc4ccc(C5=NNC(=O)CC5)cc4OC)n3)ccc(OC)c2n1 [Example 291, 6-(2-Ethyl-8-methoxyquinolin-5-yl)-2-[4-[2-methoxy-4-(6-oxo-1,4,5,6-tetrahydropyridazin-3-yl)phenoxy]butyl]-2H-pyridazin-3-one]	–	0.1 to 1	70 to 80	1 to 10	–	–	–	–
COc1ccc(-c2ccc(=O)n(CCCCOc3ccc(C4=NNC(=O)CC4C)c(F)c3F)n2)c2ccc(C)nc12 (stereo not drawn) [Example 273, 2-[4-[2,3-Difluoro-4-(4-methyl-6-oxo-1,4,5,6-tetrahydropyridazin-3-yl)phenoxy]butyl]-6-(8-methoxy-2-methylquinolin-5-yl)-2H-pyridazin-3-one]	–	< 0.1	≥ 90	< 0.1	–	–	–	–
CCc1ccc2c(-c3ccc(=O)n(CCCCOc4ccc(C5=NNC(=O)CC5C)cc4OC)n3)ccc(OC)c2n1 (stereo not drawn) [Example 288, 6-(2-Ethyl-8-methoxyquinolin-5-yl)-2-[4-[2-methoxy-4-(4-methyl-6-oxo-1,4,5,6-tetrahydropyridazin-3-yl)phenoxy]butyl]-2H-pyridazin-3-one]	–	0.1 to 1	80 to 90	0.1 to 1	–	–	–	–
